Source: PubChem BioAssay (NCI)
Several values for one entry are separate records, joined by “and”; a condition that tells them apart may be missing. Identical values can stand only once.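 Where inhibition never reached the appropriate level, the endpoint shown equals the highest concentration tested. Otherwise, values were interpolated linearly from a five-concentration, 48-hour dose response in 96-well plates. Abbreviation: GI50, concentration required for 50% inhibition of growth. TGI is the concentration that stops growth completely.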

Tests used:
Assay in all cases: NCI-60 cell line screen, 48 h
[1] = system: HCT-15 colon
[2] = system: SF-295 CNS
[3] = system: SK-MEL-28 melanoma
[4] = system: HL-60(TB) leukemia
[5] = system: PC-3 prostate
[6] = system: OVCAR-4 ovarian
[7] = system: RPMI-8226 leukemia
[8] = system: MALME-3M melanoma
[9] = system: MDA-MB-435
[10] = system: M14 melanoma

| Compound | GI50 [1] | TGI [1] | GI50 [2] | TGI [2] | GI50 [3] | TGI [3] | GI50 [4] | TGI [4] | GI50 [5] | TGI [5] | GI50 [6] | TGI [6] | GI50 [7] | TGI [7] | GI50 [8] | TGI [8] | GI50 [9] | TGI [9] | GI50 [10] | TGI [10] |
| --- | --- | --- | --- | --- | --- | --- | --- | --- | --- | --- | --- | --- | --- | --- | --- | --- | --- | --- | --- | --- |
| C#Cc1cccc(NC(=O)Nc2ccccc2NC(=O)CCl)c1 | 15.1 µM | 41.6 µM | 39.4 µM | > 82.5 µM | 23.7 µM | > 82.5 µM | 25.2 µM | > 82.5 µM | 21.5 µM | 58 µM | 16 µM | 41 µM | 15.2 µM | > 82.5 µM | 19.5 µM | 56.7 µM | 15 µM | 31.5 µM | 27.8 µM | > 82.5 µM |
| CC(=O)OCC1OC(n2cc(F)c(=O)[nH]c2=O)C(OC(C)=O)C1OC(C)=O (configuration not stated) |  | > 100 µM |  | > 100 µM |  | > 100 µM |  | > 100 µM |  | > 100 µM |  | > 90.3 µM |  | > 100 µM |  | > 100 µM |  | > 100 µM |  | > 100 µM |
| CCc1nc(N)nc(N)c1-c1ccc(Cl)cc1 | 4.74 µM | > 100 µM | 3.17 µM | 37.9 µM and > 100 µM | > 100 µM | > 100 µM | 6.67 µM | > 100 µM | 5.21 µM | > 100 µM | 60 µM | > 100 µM | 56.6 µM | > 100 µM | 59.3 µM | > 100 µM and 99.6 µM | 4.6 µM | > 100 µM |  | > 100 µM |
| CC(C)Oc1cc(OCC(=O)O)cc(C(=O)N(CCC(N)=O)C(=O)Nc2ccc(C(=O)O)cc2OC(C)C)c1 | > 100 µM | > 100 µM | > 100 µM | > 100 µM | > 100 µM | > 100 µM | > 100 µM | > 100 µM | > 100 µM | > 100 µM | > 100 µM | > 100 µM | > 100 µM | > 100 µM | > 100 µM | > 100 µM | > 100 µM | > 100 µM | > 100 µM | > 100 µM |
| CC[C@]1(O)C[C@@H]2CN(Cc3c([nH]c4ccccc34)[C@@](C(=O)OC)(c3cc4c(cc3OC)N(C)[C@H]3[C@@](O)(C(=O)OC)[C@H](OC(C)=O)[C@]5(CC)[C@@H]6C[C@@H]6CN6CC[C@]43[C@@H]65)C2)C1 | 2.78 µM | > 4.38 µM | 0.137 µM | > 4.38 µM | 0.0822 µM | > 4.38 µM | 0.0159 µM | > 4.38 µM | 0.0829 µM | > 4.38 µM | 0.666 µM | > 4.38 µM | 0.0372 µM | > 4.38 µM | 2.6 µM | > 4.38 µM | 0.00612 µM | 0.0235 µM | 0.135 µM | > 2.93 µM |
| FC(F)(F)c1ccc2nc(-c3nc(-c4ccccc4)n4ccccc34)[nH]c2c1 | 3.5 µM | 22 µM | 3.85 µM | 15.1 µM | 9.22 µM | 31.6 µM | 27.8 µM | > 100 µM | 4.11 µM | > 100 µM | 1.81 µM | 3.71 µM | 3.84 µM | 36.9 µM | 2.71 µM | 9.02 µM | 5.47 µM | 31.6 µM | 17.7 µM | > 100 µM |
| CCN(CC)CCn1c(=N)n(CC(O)c2ccc(Cl)c(Cl)c2)c2ccccc21 (configuration not stated) | 4.02 µM | 15.1 µM | 8.87 µM | 24.1 µM | 2.05 µM | 4.34 µM | 5.12 µM | 22.2 µM | 5.21 µM | 19.3 µM | 10.6 µM | 24.3 µM | 2.72 µM | 8.02 µM | 2.23 µM | 4.44 µM | 1.75 µM | 3.49 µM | 2.07 µM | 3.74 µM |
| O=P(O)(O)OC1C(OP(=O)(O)O)C(OP(=O)(O)O)C(OP(=O)(O)O)C(OP(=O)(O)O)C1OP(=O)(O)O (configuration not stated) | > 2000 µM | > 2000 µM | > 2000 µM | > 2000 µM | > 2000 µM | > 2000 µM | > 2000 µM | > 2000 µM | > 2000 µM | > 2000 µM | > 100 µM | > 2000 µM | > 2000 µM | > 2000 µM | > 2000 µM | > 2000 µM | > 1770 µM | > 2000 µM | > 2000 µM | > 2000 µM |
| CC(C)(O)Cn1c(=O)c(Oc2ccc(F)cc2F)cc2cnc(NC3CCOCC3)nc21 | > 25 µM | > 25 µM | > 25 µM | > 25 µM | > 25 µM | > 25 µM | > 25 µM | > 25 µM | > 25 µM | > 25 µM | > 25 µM | > 25 µM | > 25 µM | > 25 µM | > 25 µM | > 25 µM | > 25 µM | > 25 µM | > 25 µM | > 25 µM |
| O=C(Nc1ccc(Cl)cc1)NS(=O)(=O)c1ccc2c(c1)CCC2 | 16.3 µg/mL | > 90.2 µM and 41.8 µg/mL | 12 µg/mL | > 100 µM and 31.9 µg/mL | 20.1 µg/mL | > 100 µM and 39.3 µg/mL | 24.1 µg/mL | > 78.2 µM and 65.8 µg/mL |  | 47.3 µM | 37.9 µg/mL | > 100 µM and 88.1 µg/mL | 34.2 µg/mL | 85.7 µM and 150 µg/mL | 13.7 µg/mL | > 71.3 µM and 38.2 µg/mL |  | 48.3 µM | 20.2 µg/mL | 97.5 µM and 45.1 µg/mL |
| CCc1cc(C(N)=O)ccc1-n1nc(C(C)C)c2c(-n3cnc(-c4cnn(C)c4)c3)ccnc21 | 2.9 µM | > 100 µM | 0.992 µM | 10.3 µM | 1.22 µM | > 100 µM | 1.14 µM | > 100 µM | 3.61 µM | > 100 µM | 6.24 µM | > 100 µM | 3.76 µM | > 100 µM | 1.05 µM | > 31.3 µM | 0.719 µM | > 100 µM | 1.22 µM | > 100 µM |
| COc1ccc(/C=C2/SC(=Nc3c(C)nn(-c4ccccc4)c3N)NC2=O)cc1 | 3.64 µM | 30.7 µM | 2.76 µM | 13.2 µM | 11.6 µM | 50.5 µM | 2.9 µM | 10.7 µM | 4.35 µM | 77.7 µM | 8.21 µM | > 100 µM | 3.9 µM | 22.9 µM | 3.77 µM | 22.1 µM | 1.27 µM | 3.97 µM | 3.72 µM | 22.6 µM |
| CC/C=C/[C@@H]1C=C[C@@H]2CCC[C@H]2[C@@H]1CC[C@H](O)[C@H](C)N | 1.54 µM | 2.87 µM | 1.75 µM | 3.9 µM | 1.66 µM | 3.01 µM | 1.33 µM | 2.91 µM | 2.91 µM | 12.5 µM | 1.83 µM | 4.88 µM | 3.07 µM | 9.79 µM | 1.35 µM | 2.95 µM | 1.7 µM | 3.27 µM | 1.6 µM | 2.98 µM |
| COc1ccccc1/C=C1\COc2ccc(O)c(O)c2C1=O | 0.823 µM | 4.54 µM | 4.49 µM | > 100 µM | 1.91 µM | 4.44 µM | 0.407 µM | 4.49 µM | 1.43 µM | 11.3 µM | 1.86 µM | 9.55 µM | 0.235 µM | 0.693 µM | 1.38 µM | 3.72 µM | 1.57 µM | 4.96 µM | 2.19 µM | 8.38 µM |
